From ChEMBL document CHEMBL1201862, “PubChem BioAssay data set” (2004)
Each block holds one compound with its values, some of them ahead of it. Calls of active or inactive are those of the source.

Key:
[1] = target: DNA dC->dU-editing enzyme APOBEC-3G (Homo sapiens, UniProt Q9HC16); test: SAR analysis of small molecule inhibitors of APOBEC3G DNA Deaminase via a fluorescence-based single-stranded DNA deaminase assay - Set 2.; format: functional; settings: read-out: IC50_Mean
[2] = target: DNA dC->dU-editing enzyme APOBEC-3A (Homo sapiens, UniProt P31941); test: SAR analysis of small molecule inhibitors of APOBEC3A DNA Deaminase via a fluorescence-based single-stranded DNA deaminase assay - Set 2.; format: functional; settings: read-out: IC50_Mean
Sequence of DNA dC->dU-editing enzyme APOBEC-3A (P31941 whole entry): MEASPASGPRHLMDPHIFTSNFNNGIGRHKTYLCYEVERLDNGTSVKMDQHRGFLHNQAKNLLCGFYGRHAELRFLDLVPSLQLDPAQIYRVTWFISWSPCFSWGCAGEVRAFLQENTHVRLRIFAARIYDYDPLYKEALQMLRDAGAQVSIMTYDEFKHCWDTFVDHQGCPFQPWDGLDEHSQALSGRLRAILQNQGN

Melanocortin receptor 4 = Melanocortin receptor 4 (Homo sapiens, UniProt P32245); test: inhibitors of MC4R cAMP signaling – cell-based, TR-FRET, biased antagonists, dose response (AID 602298); format: functional;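 also: antagonist potency against agonist-stimulated cAMP production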
Sequence of Melanocortin receptor 4 (P32245 whole entry): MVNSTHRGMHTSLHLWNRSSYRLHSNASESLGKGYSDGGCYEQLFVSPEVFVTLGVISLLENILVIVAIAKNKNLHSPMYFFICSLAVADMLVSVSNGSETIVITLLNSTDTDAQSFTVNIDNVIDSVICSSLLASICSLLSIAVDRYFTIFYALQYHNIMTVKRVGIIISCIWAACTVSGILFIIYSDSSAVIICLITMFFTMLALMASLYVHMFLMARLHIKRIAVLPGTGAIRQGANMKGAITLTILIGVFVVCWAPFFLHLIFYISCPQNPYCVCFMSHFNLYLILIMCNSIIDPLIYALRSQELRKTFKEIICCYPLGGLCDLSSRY

[3] = cAMP pathway inhibition in counterscreen cell line – TR-FRET cAMP detection, counter-screen for MC4R biased antagonist project, dose response (AID 602305); format: functional, cell-based;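 also: U2OS cells stimulated with forskolin near its EC80 as the cAMP inducer; potency is for inhibition of forskolin-stimulated cAMP signaling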
[4] = target: Protein disulfide-isomerase (Homo sapiens, UniProt P07237); test: inhibition of PDI-driven insulin aggregation – biochemical, turbidity, absorbance, cherry-picked samples, dose response (AID 602350); format: functional
[5] = target: Sphingosine 1-phosphate receptor 3 (Homo sapiens, UniProt Q99500); test: Late-stage fluorescence-based dose-response cell-based counterscreen assay to identify agonists of the Sphingosine 1-Phosphate Receptor 4 (S1P4): Sphingosine 1-Phosphate Receptor 3 (S1P3) agonist assay Set 2.; format: functional
Sequence of Sphingosine 1-phosphate receptor 3 (Q99500 whole entry): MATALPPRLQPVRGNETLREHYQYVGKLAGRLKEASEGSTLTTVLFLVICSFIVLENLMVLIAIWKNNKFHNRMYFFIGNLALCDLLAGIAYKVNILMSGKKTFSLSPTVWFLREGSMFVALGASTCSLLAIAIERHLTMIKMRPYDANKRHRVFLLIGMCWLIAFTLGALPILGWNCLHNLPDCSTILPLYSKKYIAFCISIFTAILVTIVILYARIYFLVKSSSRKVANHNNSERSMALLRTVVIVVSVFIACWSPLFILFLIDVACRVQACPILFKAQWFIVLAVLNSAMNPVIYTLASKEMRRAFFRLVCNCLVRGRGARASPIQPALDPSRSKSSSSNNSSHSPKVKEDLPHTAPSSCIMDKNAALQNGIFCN

[6] = target: Sphingosine 1-phosphate receptor 5 (Homo sapiens, UniProt Q9H228); test: activation of human S1P5 receptor – cell-based, fluorescence, set 2, counter-screen for S1P4 agonist project, late-stage follow-up (AID 504867); format: functional
[7] = target: Sphingosine 1-phosphate receptor 1 (Homo sapiens, UniProt P21453); test: Late-stage fluorescence-based dose-response cell-based counterscreen assay to identify agonists of the Sphingosine 1-Phosphate Receptor 4 (S1P4): Sphingosine 1-Phosphate Receptor 1 (S1P1) agonist assay Set 2.; format: functional
[8] = target: Sphingosine 1-phosphate receptor 2 (Homo sapiens, UniProt O95136); test: activation of human S1P2 receptor – cell-based, fluorescence, set 2, counter-screen for S1P4 agonist project, late-stage follow-up (AID 504873); format: functional
[9] = target: Dual specificity protein kinase CLK4 (Homo sapiens, UniProt Q9HAZ1); format: functional
Sequence of Dual specificity protein kinase CLK4 (Q9HAZ1 whole entry): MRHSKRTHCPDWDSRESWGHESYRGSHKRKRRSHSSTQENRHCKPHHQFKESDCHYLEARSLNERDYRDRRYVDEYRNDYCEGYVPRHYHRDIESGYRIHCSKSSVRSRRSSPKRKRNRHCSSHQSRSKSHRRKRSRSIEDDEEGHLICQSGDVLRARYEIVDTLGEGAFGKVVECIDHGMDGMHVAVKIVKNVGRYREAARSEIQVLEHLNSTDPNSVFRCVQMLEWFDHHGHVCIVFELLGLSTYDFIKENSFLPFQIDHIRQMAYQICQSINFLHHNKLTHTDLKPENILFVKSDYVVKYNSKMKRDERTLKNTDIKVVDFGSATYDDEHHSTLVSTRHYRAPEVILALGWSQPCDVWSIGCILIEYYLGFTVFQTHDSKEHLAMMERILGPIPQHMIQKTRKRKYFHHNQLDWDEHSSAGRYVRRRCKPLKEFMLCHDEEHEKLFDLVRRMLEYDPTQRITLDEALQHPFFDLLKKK

[10] = target: Cyclin-dependent kinase 9 (Homo sapiens, UniProt P50750); format: functional;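 also: value from the CDK9 entry of a kinome-spanning kinase panel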
[11] = target: Glycogen synthase kinase-3 alpha (Homo sapiens, UniProt P49840); format: functional;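 also: GSK3A result taken from a broad kinome-wide kinase panel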
[12] = target: Vascular endothelial growth factor receptor 2 (Homo sapiens, UniProt P35968); format: functional
[13] = target: Cyclin-dependent kinase 8 (Homo sapiens, UniProt P49336); test: Navigating the Kinome. Panel member name: CDK8; format: functional
Sequence of Cyclin-dependent kinase 8 (P49336 whole entry): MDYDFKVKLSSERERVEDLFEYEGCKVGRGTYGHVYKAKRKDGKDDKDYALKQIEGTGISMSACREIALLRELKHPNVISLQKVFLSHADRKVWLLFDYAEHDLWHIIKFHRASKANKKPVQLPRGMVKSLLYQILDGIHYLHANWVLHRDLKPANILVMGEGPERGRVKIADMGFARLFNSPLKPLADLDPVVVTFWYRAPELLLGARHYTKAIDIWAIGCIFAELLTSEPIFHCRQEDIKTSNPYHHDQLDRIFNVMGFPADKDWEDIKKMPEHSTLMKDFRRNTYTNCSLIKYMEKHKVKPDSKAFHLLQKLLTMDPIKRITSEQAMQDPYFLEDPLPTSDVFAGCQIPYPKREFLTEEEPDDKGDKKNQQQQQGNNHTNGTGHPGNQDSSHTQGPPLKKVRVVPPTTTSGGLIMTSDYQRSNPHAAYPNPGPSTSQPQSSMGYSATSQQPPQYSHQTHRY

[14] = target: cAMP-dependent protein kinase catalytic subunit alpha (Homo sapiens, UniProt P17612); format: functional
[15] = target: Protein kinase C theta type (Homo sapiens, UniProt Q04759); test: Navigating the Kinome. Panel member name: PRKCQ; format: functional
Sequence of Protein kinase C theta type (Q04759 whole entry): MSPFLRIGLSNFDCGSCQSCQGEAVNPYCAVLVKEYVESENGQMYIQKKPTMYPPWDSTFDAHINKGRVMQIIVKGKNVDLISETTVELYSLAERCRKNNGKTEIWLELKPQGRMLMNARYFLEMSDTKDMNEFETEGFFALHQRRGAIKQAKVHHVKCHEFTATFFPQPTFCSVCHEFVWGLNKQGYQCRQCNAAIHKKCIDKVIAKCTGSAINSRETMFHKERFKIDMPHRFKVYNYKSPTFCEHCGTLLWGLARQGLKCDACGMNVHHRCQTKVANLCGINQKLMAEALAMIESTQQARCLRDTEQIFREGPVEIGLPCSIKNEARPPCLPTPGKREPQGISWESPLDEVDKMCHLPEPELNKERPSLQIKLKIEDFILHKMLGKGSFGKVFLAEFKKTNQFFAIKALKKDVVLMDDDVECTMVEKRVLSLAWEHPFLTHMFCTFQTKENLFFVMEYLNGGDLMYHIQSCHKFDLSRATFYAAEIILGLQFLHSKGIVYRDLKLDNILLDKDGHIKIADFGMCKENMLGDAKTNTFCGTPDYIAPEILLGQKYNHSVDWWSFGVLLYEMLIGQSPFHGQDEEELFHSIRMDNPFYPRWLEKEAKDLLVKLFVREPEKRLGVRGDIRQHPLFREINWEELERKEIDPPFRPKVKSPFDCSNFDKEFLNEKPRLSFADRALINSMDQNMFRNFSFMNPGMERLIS

[16] = target: Cyclin-dependent kinase 19 (Homo sapiens, UniProt Q9BWU1); test: Navigating the Kinome. Panel member name: CDC2L6; format: functional
Activated CDC42 kinase 1 = Activated CDC42 kinase 1 (Homo sapiens, UniProt Q07912); test: Navigating the Kinome. Panel member name: ACK1; format: functional
[17] = target: Death-associated protein kinase 3 (Homo sapiens, UniProt O43293); format: functional;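 also: measured as one member of a kinome-wide profiling panel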
Sequence of Death-associated protein kinase 3 (O43293 whole entry): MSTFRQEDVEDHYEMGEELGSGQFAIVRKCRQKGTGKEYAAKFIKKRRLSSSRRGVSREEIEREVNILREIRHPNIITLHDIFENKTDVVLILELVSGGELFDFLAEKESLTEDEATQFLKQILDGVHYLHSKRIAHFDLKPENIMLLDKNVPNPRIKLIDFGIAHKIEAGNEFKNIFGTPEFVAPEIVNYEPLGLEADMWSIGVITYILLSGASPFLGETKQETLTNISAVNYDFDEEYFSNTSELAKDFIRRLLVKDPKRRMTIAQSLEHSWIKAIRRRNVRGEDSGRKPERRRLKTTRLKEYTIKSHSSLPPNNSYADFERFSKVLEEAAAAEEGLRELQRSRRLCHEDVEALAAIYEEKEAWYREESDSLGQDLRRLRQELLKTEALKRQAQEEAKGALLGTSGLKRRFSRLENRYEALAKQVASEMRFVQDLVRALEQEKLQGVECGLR

[18] = target: Dual specificity tyrosine-phosphorylation-regulated kinase 1B (Homo sapiens, UniProt Q9Y463); test: Navigating the Kinome. Panel member name: DYRK1B; format: functional
[19] = target: Dual specificity tyrosine-phosphorylation-regulated kinase 1A (Homo sapiens, UniProt Q13627); format: functional;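 also: measured against DYRK1A as one member of a broad kinome profiling panel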
[20] = target: Proto-oncogene tyrosine-protein kinase receptor Ret (Homo sapiens, UniProt P07949); format: functional;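 also: measured within a kinome-wide profiling panel, RET as the panel member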
Aurora kinase A = Aurora kinase A (Homo sapiens, UniProt O14965); format: functional;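 also: value from the Navigating the Kinome kinase panel profiling, panel entry STK6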
[21] = target: Glycogen synthase kinase-3 beta (Homo sapiens, UniProt P49841); format: functional;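 also: value comes from a broad kinome profiling panel, with GSK3B as the panel member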
Sequence of Glycogen synthase kinase-3 beta (P49841 whole entry): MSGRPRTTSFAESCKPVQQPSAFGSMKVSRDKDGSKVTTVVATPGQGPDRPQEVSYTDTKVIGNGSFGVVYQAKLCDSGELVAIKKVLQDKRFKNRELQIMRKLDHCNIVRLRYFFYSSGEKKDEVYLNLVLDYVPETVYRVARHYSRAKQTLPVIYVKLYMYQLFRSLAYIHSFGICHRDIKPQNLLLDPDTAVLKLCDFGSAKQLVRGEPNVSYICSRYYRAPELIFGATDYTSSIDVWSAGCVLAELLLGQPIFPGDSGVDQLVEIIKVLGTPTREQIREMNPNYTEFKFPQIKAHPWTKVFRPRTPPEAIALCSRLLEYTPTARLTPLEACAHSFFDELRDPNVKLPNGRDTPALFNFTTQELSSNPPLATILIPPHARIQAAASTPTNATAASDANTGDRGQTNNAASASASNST

[22] = target: Macrophage colony-stimulating factor 1 receptor (Homo sapiens, UniProt P07333); format: functional;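 also: value comes from the Navigating the Kinome screening panel, CSF1R member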
Focal adhesion kinase 1 = Focal adhesion kinase 1 (Homo sapiens, UniProt Q05397); format: functional;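 also: measured as one member of a kinome panel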
[23] = target: Cyclin-dependent kinase 5 (Homo sapiens, UniProt Q00535); format: functional;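 also: CDK5 measured as one member of a kinase profiling panel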
[24] = target: Melanin-concentrating hormone receptor 1 (Homo sapiens, UniProt Q99705); test: Late-stage fluorescence-based counterscreen for antagonists of the G-protein coupled receptor 7 (GPR7): cell-based dose response assay to identify antagonists of the melanin-concentrating hormone receptor 1 (MCHR1). [Related pubchem assays (depositor defined):AID1861, AID1880, AID1952, AID2148, AID2251, AID2257, AID485339]; format: functional;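 also: stimulated with 30 nM MCH peptide agonist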
[25] = Late-stage results from the probe development effort to identify antagonists of the G-protein coupled receptor 7 (GPR7): luminescence-based cell-based dose response counterscreen assay to determine cytotoxicity of antagonist compounds Set 2.; format: functional
[26] = Late-stage luminescence-based cell-based dose response assay to identify antagonists of the G-protein coupled receptor 7 (GPR7): Cytotoxicity assay. [Related pubchem assays (depositor defined):AID1861, AID1880, AID1952, AID2148, AID2251, AID2257, AID485339]; format: functional
[27] = target: MAP kinase-interacting serine/threonine-protein kinase 2 (Homo sapiens, UniProt Q9HBH9); format: functional
[28] = target: Serine/threonine-protein kinase pim-1 (Homo sapiens, UniProt P11309); format: functional
Sequence of Serine/threonine-protein kinase pim-1 (P11309 whole entry): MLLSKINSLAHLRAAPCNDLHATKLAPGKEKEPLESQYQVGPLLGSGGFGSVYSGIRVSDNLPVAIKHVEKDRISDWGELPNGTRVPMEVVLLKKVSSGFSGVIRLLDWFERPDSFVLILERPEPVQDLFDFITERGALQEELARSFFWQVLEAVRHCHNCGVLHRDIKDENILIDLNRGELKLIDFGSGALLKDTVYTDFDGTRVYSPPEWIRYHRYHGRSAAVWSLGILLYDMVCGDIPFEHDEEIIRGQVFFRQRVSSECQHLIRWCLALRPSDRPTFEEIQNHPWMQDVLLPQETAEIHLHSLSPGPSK

[29] = target: Cell division cycle 7-related protein kinase (Homo sapiens, UniProt O00311); format: functional;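 also: value obtained from a kinome-wide kinase panel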
[30] = target: Mitogen-activated protein kinase kinase kinase kinase 4 (Homo sapiens, UniProt O95819); format: functional
[31] = target: Interleukin-1 receptor-associated kinase 4 (Homo sapiens, UniProt Q9NWZ3); format: functional
[32] = target: Homeodomain-interacting protein kinase 2 (Homo sapiens, UniProt Q9H2X6); format: functional;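 also: measured within a kinome-wide kinase profiling panel, HIPK2 being one panel member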
Sequence of Homeodomain-interacting protein kinase 2 (Q9H2X6 whole entry): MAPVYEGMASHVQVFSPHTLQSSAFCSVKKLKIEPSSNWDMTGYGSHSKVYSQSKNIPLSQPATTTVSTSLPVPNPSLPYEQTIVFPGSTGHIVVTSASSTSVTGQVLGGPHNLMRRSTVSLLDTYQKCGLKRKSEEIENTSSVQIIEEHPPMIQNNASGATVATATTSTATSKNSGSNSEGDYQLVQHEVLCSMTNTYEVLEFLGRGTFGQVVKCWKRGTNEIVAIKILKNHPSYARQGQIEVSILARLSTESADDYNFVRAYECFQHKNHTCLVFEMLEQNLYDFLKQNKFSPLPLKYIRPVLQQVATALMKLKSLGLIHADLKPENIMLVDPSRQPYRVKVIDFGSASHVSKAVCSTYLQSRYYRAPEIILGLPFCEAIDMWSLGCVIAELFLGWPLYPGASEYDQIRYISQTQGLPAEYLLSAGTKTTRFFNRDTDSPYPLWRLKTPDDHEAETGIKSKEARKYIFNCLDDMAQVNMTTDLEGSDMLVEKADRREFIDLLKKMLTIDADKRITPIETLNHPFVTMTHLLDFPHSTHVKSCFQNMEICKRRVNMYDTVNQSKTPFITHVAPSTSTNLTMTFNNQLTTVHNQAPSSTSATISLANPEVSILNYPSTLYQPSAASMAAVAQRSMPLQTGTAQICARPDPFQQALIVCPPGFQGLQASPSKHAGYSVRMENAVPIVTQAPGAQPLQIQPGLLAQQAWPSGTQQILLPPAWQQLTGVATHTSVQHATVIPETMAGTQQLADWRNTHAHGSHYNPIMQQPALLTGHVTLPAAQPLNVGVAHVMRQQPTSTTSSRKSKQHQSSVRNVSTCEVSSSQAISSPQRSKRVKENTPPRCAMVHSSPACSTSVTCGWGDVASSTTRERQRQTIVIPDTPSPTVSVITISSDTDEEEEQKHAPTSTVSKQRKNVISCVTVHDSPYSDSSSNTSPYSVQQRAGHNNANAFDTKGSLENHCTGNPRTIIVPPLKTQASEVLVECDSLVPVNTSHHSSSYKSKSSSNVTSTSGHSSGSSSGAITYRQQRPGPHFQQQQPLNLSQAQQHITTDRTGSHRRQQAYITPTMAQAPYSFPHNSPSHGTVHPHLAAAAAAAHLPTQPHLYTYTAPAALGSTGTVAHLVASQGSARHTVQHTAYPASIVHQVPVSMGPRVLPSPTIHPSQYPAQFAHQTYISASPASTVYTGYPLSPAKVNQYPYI

[33] = target: Cyclin-dependent kinase 2 (Homo sapiens, UniProt P24941); format: functional;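 also: CDK2 measured as one member of a broad kinome profiling panel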
[34] = target: T1, Apoptotic protease-activating factor 1 (Homo sapiens, UniProt O14727); test: SAR analysis of small molecule Activators of Apaf-1 in a Fluorescent assay - set 2.; format: functional; settings: read-out: EC50_Mean
T1 sequence (O14727 whole entry): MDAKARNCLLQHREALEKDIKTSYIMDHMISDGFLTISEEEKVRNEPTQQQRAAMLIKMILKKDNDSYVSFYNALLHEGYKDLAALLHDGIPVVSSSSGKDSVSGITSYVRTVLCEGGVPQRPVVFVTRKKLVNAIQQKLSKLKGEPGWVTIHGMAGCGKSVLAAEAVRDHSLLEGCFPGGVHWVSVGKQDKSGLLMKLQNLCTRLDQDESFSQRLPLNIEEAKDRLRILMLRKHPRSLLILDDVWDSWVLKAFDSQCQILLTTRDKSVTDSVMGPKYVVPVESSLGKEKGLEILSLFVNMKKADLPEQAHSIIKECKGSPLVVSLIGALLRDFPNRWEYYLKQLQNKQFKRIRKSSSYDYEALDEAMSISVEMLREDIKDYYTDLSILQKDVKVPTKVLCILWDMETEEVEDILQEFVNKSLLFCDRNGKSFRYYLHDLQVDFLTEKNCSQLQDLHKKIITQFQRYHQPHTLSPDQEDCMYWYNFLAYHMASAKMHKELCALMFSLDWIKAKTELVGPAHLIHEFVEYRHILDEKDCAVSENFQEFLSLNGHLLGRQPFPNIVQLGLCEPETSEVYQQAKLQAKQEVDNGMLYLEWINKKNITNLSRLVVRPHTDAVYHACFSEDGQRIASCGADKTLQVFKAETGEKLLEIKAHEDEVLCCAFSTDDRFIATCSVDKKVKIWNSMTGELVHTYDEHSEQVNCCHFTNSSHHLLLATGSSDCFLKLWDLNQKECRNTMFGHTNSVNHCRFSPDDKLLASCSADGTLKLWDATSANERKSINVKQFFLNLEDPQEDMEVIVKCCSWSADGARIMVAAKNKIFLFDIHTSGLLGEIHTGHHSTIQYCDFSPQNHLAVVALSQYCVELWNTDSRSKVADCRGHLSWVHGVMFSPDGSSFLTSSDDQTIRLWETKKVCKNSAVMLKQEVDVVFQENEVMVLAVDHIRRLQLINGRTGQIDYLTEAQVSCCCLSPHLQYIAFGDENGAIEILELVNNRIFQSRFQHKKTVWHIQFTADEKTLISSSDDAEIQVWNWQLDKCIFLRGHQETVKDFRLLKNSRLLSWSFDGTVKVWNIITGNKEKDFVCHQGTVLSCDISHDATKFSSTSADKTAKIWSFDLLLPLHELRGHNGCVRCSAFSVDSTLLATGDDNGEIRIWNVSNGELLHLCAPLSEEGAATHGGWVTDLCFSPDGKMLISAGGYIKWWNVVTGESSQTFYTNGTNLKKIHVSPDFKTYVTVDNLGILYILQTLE

[35] = SAR analysis of small molecule activators of Apaf-1 using a LZ-Caspase-9/Caspase-3 Fluorescent Selectivity assay - Set 2.; format: functional; settings: read-out: EC50_Mean

Structure (SMILES): O=C(O)c1cc2nccc(-c3cccs3)n2n1
IC50 [1]: > 99 µM (inactive) | IC50 [2]: > 99 µM (inactive)

Structure (SMILES): O=C(Nc1ccccc1)OC1CCC2CC1CCC2OC(=O)Nc1ccccc1 (configuration not stated)
IC50 (Melanocortin receptor 4): 7.46 µM (active) | IC50 [3]: > 64.6 µM (inactive)

AC50 [4]: 0.0155 µM (active)
Structure (SMILES): O=c1c(O[C@H]2O[C@@H](CO)[C@H](O)[C@@H](O)[C@@H]2O)c(-c2ccc(O)cc2)oc2cc(O)cc(O)c12

EC50 [5]: > 25 µM (inactive) | EC50 [6]: 0.0367 µM (active) | EC50 [7]: 0.274 µM (active) | EC50 [8]: > 25 µM (inactive)
Structure (SMILES): CC/N=C1/S/C(=C/c2cc(C)n(-c3ccc(Cl)cc3F)c2C)C(=O)N1CC

Ki [9]: 3.98 µM (active) | Ki [10]: > 63.1 µM (inactive) | Ki [11]: 50.1 µM (active) | Ki [12]: > 100 µM (inactive) | Ki [13]: 3.98 µM (active) | Ki [14]: 39.8 µM (active) | Ki [15]: 3.98 µM (active) | Ki [16]: > 100 µM (inactive) | Ki (Activated CDC42 kinase 1): 25.1 µM (active) | Ki [18]: 31.6 µM (active) | Ki [19]: 63.1 µM (active) | Ki [20]: 50.1 µM (active) | Ki (Aurora kinase A): > 63.1 µM (inactive) | Ki [21]: 31.6 µM (active) | Ki [22]: > 100 µM (inactive) | Ki (Focal adhesion kinase 1): 100 µM (active) | Ki [23]: 5.01 µM (active)
Structure (SMILES): O=C1CN2C(=NN1)COc1ccccc12
Ki [17]: 10 µM (active)

IC50 [24]: 3.9 µM (active)
Structure (SMILES): COc1ccc(Oc2c(Cl)cnn(-c3cc(C)cc(C)c3)c2=O)cc1
CC50 [25]: > 20 µM (inactive) | CC50 [26]: > 20 µM (inactive)

Ki [9]: 5.01 µM (active) | Ki [27]: > 10 µM (inactive) | Ki [28]: 2 µM (active) | Ki [14]: > 7.94 µM (inactive) | Ki [29]: 0.0316 µM (active) | Ki [30]: 0.631 µM (active) | Ki [31]: > 10 µM (inactive) | Ki [21]: 1.26 µM (active) | Ki [32]: > 3.16 µM (inactive) | Ki [33]: > 7.94 µM (inactive)
Structure (SMILES): O=C(O)c1ccccc1Nc1ccnc(NCc2cccc(O)c2)n1

EC50 [34]: > 100 µM (inactive) | EC50 [35]: > 100 µM (inactive)
Structure (SMILES): CC(CN1CCCC1)C(=O)O (configuration not stated)
